Source: patent EP0435381B1, “Antipicornaviral pyridazinamines” (priority 1989, dated 1991)
Values after ≈ are worked out from the molar mass of the structure shown.

Columns and labels:
[1] = system: HRV- 2,-29,-39,-85,-9,-15,-51, -59,-63,-89,-41; assay: Picornavirus Minimal Inhibitory Concentration Test (cytopathic effect reduction assay), first panel of rhinoviruses; type: cell-based; conditions: Human rhinovirus sp., HeLa, read-out: Med₁
Method: (§1) Example 24: Picornavirus Minimal Inhibitory Concentration Test,
(§2) The Minimal Inhibitory Concentration of the compounds of the present invention against the Human Rhinovirus strains (HRV) -2,-9,-14,-15,-29,-39,-41,-42,-45,-51, -59,-63,-70,-72,-85,-86 and -89 was determined by a standard cytopathic effect reduction assay as follows. To each of the ninety six (96) wells of a microtiter 96 well tissue culture plate there was added 60 µl of an Ohio Hela cell maintenance medium [Eagle's Basal medium supplemented with 5% Foetal Calf Serum (FCS)]. To two wells there was added 60 µl of an appropriate starting dilution of a compound of formula (I) and two-fold dilutions were made to cover a wide range of compound concentrations. Subsequently there were added 120 µl of an infectious solution of virus in Eagle's Basal Medium with 2% Hepes buffer, 2% FCS and 30 mM MgCl₂ to all wells except cell and compound controls. Said infectious virus solution has a TCID₅₀-value (Tissue Culture Infectious Dose) of about 100.
(§3) The TCID₅₀-value is the dose of viruses which initiates a cytopathic effect in 50% of the inoculated cells. 150 µl of the thus obtained virus-compound mixtures were then transferred to microtitre plates with subconfluent Ohio Hela Cells, grown in 100 µl of maintenance medium. Appropriate virus controls, cell controls and compound controls were included in each test. Plates were incubated for 3 to 5 days at 33°C in 5% CO₂ atmosphere. […] The IC₅₀-value for each virus-compound series was taken as the concentration in ng/ml that protected 50% of the cells from cytopathic effects with respect to the untreated controls. In the standard test procedure, the compounds were tested against two panels of rhinoviruses, a first panel consisting of serotypes HRV- 2,-29,-39,-85,-9,-15,-51, -59,-63,-89,-41 and the other panel consisting of HRV-42,-45,-14,-70,-72 and -86.
(§4) The IC₅₀-value for each rhinovirus serotype was determined, and the efficacy of each compound was determined in terms of the Med₁-value and Med₂-value, which is the medium value of the IC₅₀-value of all serotypes from the first and second panel respectively. The following table gives the testing results with the compounds of the invention.

[2] = system: HRV-42,-45,-14,-70,-72 and -86; assay: Picornavirus Minimal Inhibitory Concentration Test (cytopathic effect reduction assay), second panel of rhinoviruses; type: cell-based; conditions: Human rhinovirus sp., HRV42; medium value of the IC50-values of all serotypes of the second panel; Ohio Hela cells, 3 to 5 days at 33°C; concentration protecting 50% of the cells from cytopathic effects; read-out: Med₂
Method: as §1, §2, §3, §4

SMILES: CCc1nc(-c2ccc(OCCC3CCN(c4ccc(C)nn4)C3)cc2)no1 (stereo not shown) [compound 46]
- IC50 [1]: 0.005 µg/mL (≈ 0.0132 µM)
- IC50 [2]: 0.04 µg/mL (≈ 0.105 µM)

SMILES: CCCCc1noc(-c2ccc(OCCC3CCN(c4ccc(C)nn4)CC3)cc2)n1 [compound 11]
- IC50 [1]: 0.006 µg/mL (≈ 0.0142 µM)
- IC50 [2]: 0.175 µg/mL (≈ 0.415 µM)

SMILES: CCCc1nc(-c2ccc(OCCC3CCN(c4ccc(C)nn4)CC3)cc2)no1 [compound 27]
- IC50 [1]: 0.006 µg/mL (≈ 0.0147 µM)
- IC50 [2]: 0.122 µg/mL (≈ 0.299 µM)

SMILES: CCc1nc(-c2ccc(OCCC3CCN(c4ccc(C)nn4)CC3)cc2)cs1 [compound 26]
- IC50 [1]: 0.005 µg/mL (≈ 0.0122 µM)
- IC50 [2]: > 0.125 µg/mL

SMILES: CCCc1noc(-c2ccc(OCCC3CCN(c4ccc(C)nn4)CC3)cc2)n1 [compound 13]
- IC50 [1]: 0.0068 µg/mL (≈ 0.0167 µM)
- IC50 [2]: 0.154 µg/mL (≈ 0.378 µM)

SMILES: CCc1csc(-c2ccc(OCCC3CCN(c4ccc(C)nn4)CC3)cc2)n1 [compound 22, 3-[4-[2-[4-(4-ethyl-2-thiazolyl)phenoxy]ethyl]-1-piperidinyl]-6-methylpyridazine]
- IC50 [1]: 0.001 µg/mL (≈ 0.00245 µM)
- IC50 [2]: 0.203 µg/mL (≈ 0.497 µM)

SMILES: CCc1noc(-c2ccc(OCC3CCN(c4ccc(C)nn4)CC3)cc2)n1 [compound 16]
- IC50 [1]: 0.002 µg/mL (≈ 0.00527 µM)
- IC50 [2]: 0.083 µg/mL (≈ 0.219 µM)

SMILES: Cc1ccc(N2CCC(CCOc3ccc(-c4noc(C)n4)cc3)CC2)nn1 [compound 25]
- IC50 [1]: 0.008 µg/mL (≈ 0.0211 µM)
- IC50 [2]: 0.105 µg/mL (≈ 0.277 µM)

SMILES: CCc1noc(-c2ccc(OCCN3CCN(c4ccc(Cl)nn4)CC3)cc2)n1 [compound 38]
- IC50 [1]: 0.0024 µg/mL (≈ 0.00578 µM)
- IC50 [2]: 0.072 µg/mL (≈ 0.174 µM)

SMILES: CCCc1nc(-c2ccc(OCCC3CCN(c4ccc(C)nn4)CC3)cc2)co1 [compound 36]
- IC50 [1]: 0.007 µg/mL (≈ 0.0172 µM)
- IC50 [2]: > 0.125 µg/mL

SMILES: Cc1ccc(N2CCC(CCOc3ccc(-c4nc(C)no4)cc3)CC2)nn1 [compound 9]
- IC50 [1]: 0.004 µg/mL (≈ 0.0105 µM)
- IC50 [2]: 0.018 µg/mL (≈ 0.0474 µM)

SMILES: CCc1noc(-c2ccc(OCCC3CCN(c4ccc(C)nn4)CC3)cc2)n1 [compound 5, 3-[4-[2-[4-(3-ethyl-1,2,4-oxadiazol-5-yl)phenoxy]ethyl]-1-piperidinyl]-6-methylpyridazine]
- IC50 [1]: 0.0029 µg/mL (≈ 0.00737 µM)
- IC50 [2]: 0.098 µg/mL (≈ 0.249 µM)

SMILES: CCc1nc(-c2ccc(OCCC3CCN(c4ccc(C)nn4)CC3)cc2)co1 [compound 21, 3-[4-[2-[4-(2-ethyl-4-oxazolyl)phenoxy]ethyl]-1-piperidinyl]-6-methylpyridazine]
- IC50 [1]: < 0.0005 µg/mL
- IC50 [2]: 0.02 µg/mL (≈ 0.051 µM)

SMILES: CCc1noc(-c2ccc(OCCC3CCN(c4ccc(C)nn4)C3)cc2)n1 (stereo not shown) [compound 45]
- IC50 [1]: 0.006 µg/mL (≈ 0.0158 µM)
- IC50 [2]: 0.065 µg/mL (≈ 0.171 µM)

SMILES: CCc1nnc(-c2ccc(OCCC3CCN(c4ccc(C)nn4)CC3)cc2)o1 [compound 1]
- IC50 [1]: 0.006 µg/mL (≈ 0.0152 µM)
- IC50 [2]: 0.044 µg/mL (≈ 0.112 µM)

SMILES: CCc1nc(-c2ccc(OCCC3CCN(c4ccc(C)nn4)CC3)cc2)no1 [compound 6, 3-[4-[2-[4-(5-ethyl-1,2,4-oxadiazol-3-yl)phenoxy]ethyl]-1-piperidinyl]-6-methylpyridazine]
- IC50 [1]: 0.0013 µg/mL (≈ 0.0033 µM)
- IC50 [2]: 0.047 µg/mL (≈ 0.119 µM)

SMILES: CCc1noc(-c2ccc(OCCC3CCN(c4ccc(Cl)nn4)C3)cc2)n1 (stereo not shown) [compound 44]
- IC50 [1]: 0.014 µg/mL (≈ 0.035 µM)
- IC50 [2]: 0.166 µg/mL (≈ 0.415 µM)
